{
  "source": "paper PMC6895180",
  "about": "(Nature Communications, 2019)",
  "key": {"[1]": {"test_system": "T. b. rhodesiense STIB-900", "experiment": "microbe, parasite or virus in culture", "format": "cell-based, Trypanosoma brucei rhodesiense", "procedure": "(§1) Drug susceptibility tests with Lister 427WT, TbAT1-KO[48], B48[26] and ISMR1[27] were performed using an assay based on the viability indicator dye resazurin in 96-well plates, each well containing 2 × 10^4 cells. The plates were incubated for 48 h with a doubling dilution series of the test compounds in HMI-9/fetal bovine serum at 37 °C/5% CO2 (23 dilutions starting at 100 µM, except for the pentamidine control (50 µM)), after which resazurin (20 µL of 125 µg mL^−1 resazurin sodium salt solution was added to each well (containing 200 µL of cells and test compound)) was added to each well and the plates incubated for another 24 h. Fluorescence was determined using a FLUOstar Optima (BMG Labtech, Durham, NC) and the results fitted to a sigmoid curve with variable slope using Prism 5.0 or Prism 7.04 (GraphPad, San Diego, CA).\n(§2) Susceptibility assays with T. brucei Squib 427[49] or T. b. rhodesiense STIB-900[50] were performed under similar conditions as above, but using 10 concentrations of a 4-fold compound dilution series starting at 64 µM. Trypanosoma brucei Squib 427 was seeded at 1.5 × 10^4 parasites/well and T. b. rhodesiense at 4 × 10^3 parasites per well, followed by the addition of resazurin (final concentration of 10 µg mL^−1) after 24 h (T. brucei) or 6 h (T. b. rhodesiense)."}, "[2]": {"test_system": "T. b. brucei Lister 427WT", "experiment": "Drug susceptibility test (resazurin), Lister 427WT", "format": "cell-based, Trypanosoma brucei brucei", "outline": "(§3)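 Trypanosomes (2 × 10^4 cells/well) exposed 48 h at 37 °C/5% CO2 in HMI-9/FBS to 23-step doubling dilutions from 100 µM, then resazurin added for a further 24 h. Fluorescence fitted to a variable-slope sigmoid curve.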"}, "[3]": {"test_system": "MRC-5SV2 human embryonic lung fibroblasts", "experiment": "Cytotoxicity on MRC-5 fibroblasts (resazurin)", "format": "cell-based", "conditions": "source data; read-out: MRC-5 EC50, single measurements", "procedure": "(§4) Cytotoxicity assays were performed on MRC-5SV2 (Sigma-Aldrich/ECACC, catalogue number 84100401) human embryonic lung fibroblasts, which were cultured in minimum essential medium with Earle’s salt medium, supplemented with L-glutamine, NaHCO3 and 5% inactivated foetal calf serum. All cultures and assays were conducted at 37 °C with 5% CO2. Ten microliters of the aqueous compound dilutions were added to 190 µL of MRC-5SV2 (3 × 10^4 cells mL^−1). Cell growth was compared to untreated control wells (100% cell growth) and medium control wells (0% cell growth). After a 3-day incubation, cell viability was assessed fluorimetrically after the addition of 50 μL resazurin per well (final concentration of 10 µg mL^−1). After 4 h at 37 °C, fluorescence was measured (λex 550 nm, λem 590 nm). The results were expressed as percentage reduction in cell growth/viability compared to control wells and an EC50 was determined."}, "[4]": {"experiment": "Cytotoxicity on MRC-5 fibroblasts (resazurin)", "format": "cell-based, human", "conditions": "human, MRC-5SV2 human embryonic lung fibroblasts, source data; read-out: MRC-5 EC50, single measurements", "procedure": "as §4"}, "[5]": {"test_system": "B48: pentamidine, diminazene and melaminophenyl arsenical resistant T. brucei line", "experiment": "microbe, parasite or virus in culture", "format": "cell-based, Trypanosoma brucei brucei"}, "[6]": {"test_system": "T. brucei Squib 427", "experiment": "microbe, parasite or virus in culture", "format": "cell-based, Trypanosoma brucei brucei", "procedure": "as §1, §2"}, "[7]": {"test_system": "TbAT1-KO: T. brucei cell line lacking the TbAT1(P2) transporter gene", "experiment": "microbe, parasite or virus in culture", "format": "cell-based, Trypanosoma brucei brucei", "outline": "as §3"}, "[8]": {"test_system": "ISMR1: isometamidium-resistant T. brucei cell line", "experiment": "microbe, parasite or virus in culture", "format": "cell-based, Trypanosoma brucei brucei", "outline": "as §3"}, "[9]": {"conditions": "resistance factor vs Lister 427WT"}},
  "note": "Several values for one entry are separate records, joined by “and”; a condition that tells them apart may be missing. Equal entries are not always repeated. Where two headings read alike, the source gives them in different places. Marks after values point to notes of the source that are not given here.",
  "data": [
    {"smiles": "Nc1ncnc2c1c(Br)cn2[C@H]1C[C@H](O)[C@@H](CO)O1", "note": "[Compound 12, 7-Br-2′-deoxy-TUB]", "values": [
      {"measurement": "EC50", "setting": "[1]; Trypanosoma brucei, RHODESIENSE, Alamar blue cell viability assay, mean and SEM, read-out: T. b. rhodesiense EC50", "result": "120 ± 10", "unit": "nM"},
      {"measurement": "EC50", "setting": "[1]; Trypanosoma brucei, RHODESIENSE, source data, read-out: T. brucei rhodesiense EC50, Average", "result": 120, "unit": "nM"},
      {"measurement": "EC50", "setting": "[1]; Trypanosoma brucei, RHODESIENSE, source data, read-out: T. brucei rhodesiense EC50, single measurements", "result": 116, "unit": "nM"},
      {"measurement": "SI (MRC/T.b. rhodesiense)", "setting": "[1]; selectivity index", "result": 50},
      {"measurement": "EC50", "setting": "[1]; source data, read-out: T. brucei rhodesiense EC50, single measurements", "result": 126, "unit": "nM"},
      {"measurement": "EC50", "setting": "[2]; Trypanosoma brucei, mean and SEM, n = 3, read-out: Lister 427 EC50", "result": "310 ± 63", "unit": "nM"},
      {"measurement": "EC50", "setting": "[2]; Trypanosoma brucei, source data, read-out: s427 EC50, AVG", "result": 313, "unit": "nM"},
      {"measurement": "EC50", "setting": "[2]; Trypanosoma brucei, source data, read-out: s427 EC50, single determinations", "result": 376, "unit": "nM"},
      {"measurement": "EC50", "setting": "[2]; source data, read-out: s427 EC50, single determinations", "result": "251 nM and 355 nM"},
      {"measurement": "EC50", "setting": "[3]", "result": 5370, "unit": "nM"},
      {"measurement": "EC50 at 3 day", "setting": "[4]", "result": 6830, "unit": "nM"},
      {"measurement": "EC50", "setting": "[5]; Trypanosoma brucei, mean and SEM, n = 3, read-out: B48 EC50", "result": "830 ± 160", "unit": "nM"},
      {"measurement": "EC50", "setting": "[5]; Trypanosoma brucei, source data, read-out: B48 EC50, AVG", "result": 827, "unit": "nM"},
      {"measurement": "EC50", "setting": "[5]; Trypanosoma brucei, source data, read-out: B48 EC50, single determinations", "result": 990, "unit": "nM"},
      {"measurement": "RF (B48)", "setting": "[5]; [9]", "result": "2.64**"},
      {"measurement": "EC50", "setting": "[5]; source data, read-out: B48 EC50, single determinations", "result": "664 nM and 844 nM"},
      {"measurement": "EC50", "setting": "[6]; Trypanosoma brucei, Alamar blue cell viability assay, mean and SEM, read-out: T. b. brucei EC50", "result": "460 ± 80", "unit": "nM"},
      {"measurement": "EC50", "setting": "[6]; Trypanosoma brucei, source data, read-out: T. brucei brucei EC50, Average", "result": 460, "unit": "nM"},
      {"measurement": "EC50", "setting": "[6]; Trypanosoma brucei, source data, read-out: T. brucei brucei EC50, single measurements", "result": 382, "unit": "nM"},
      {"measurement": "SI (MRC/T.b. brucei)", "setting": "[6]; selectivity index", "result": 13},
      {"measurement": "EC50", "setting": "[6]; source data, read-out: T. brucei brucei EC50, single measurements", "result": 533, "unit": "nM"},
      {"measurement": "EC50", "setting": "[7]; Trypanosoma brucei, read-out: TbAT1-KO EC50, AVG, source data", "result": 758, "unit": "nM"},
      {"measurement": "EC50", "setting": "[7]; Trypanosoma brucei, read-out: TbAT1-KO EC50, mean and SEM, n = 3", "result": "760 ± 180", "unit": "nM"},
      {"measurement": "EC50", "setting": "[7]; Trypanosoma brucei, read-out: TbAT1-KO EC50, single determinations, source data", "result": 940, "unit": "nM"},
      {"measurement": "EC50", "setting": "[7]; read-out: TbAT1-KO EC50, single determinations, source data", "result": "576 nM and 850 nM"},
      {"measurement": "RF (TbAT1-KO)", "setting": "[7]; resistance factor: ratio of EC50 of resistant and Lister 427WT", "result": "2.37*"},
      {"measurement": "EC50", "setting": "[8]; Trypanosoma brucei, mean and SEM, n = 3, read-out: ISMR1 EC50", "result": "920 ± 120", "unit": "nM"},
      {"measurement": "EC50", "setting": "[8]; Trypanosoma brucei, source data, read-out: ISMR1 EC50, AVG", "result": 919, "unit": "nM"},
      {"measurement": "EC50", "setting": "[8]; Trypanosoma brucei, source data, read-out: ISMR1 EC50, single determinations", "result": 1150, "unit": "nM"},
      {"measurement": "RF (ISMR1)", "setting": "[8]; [9]", "result": "2.93**"},
      {"measurement": "EC50", "setting": "[8]; source data, read-out: ISMR1 EC50, single determinations", "result": "731 nM and 876 nM"}
    ]}
  ]
}
